Laboratory results reported in patent US5264430A, “2-spirocyclopropyl cephalosporin sulfone derivatives” (SynPhar Laboratories, Inc., priority 1991, dated 1993).

What was measured:
[1] = target: T1, human leukocyte elastase (HLE) (Homo sapiens, UniProt P08246); assay: Enzyme assay for inhibition of HLE (Table I, activity against ILE); assay type: biochemical; conditions: HLE 10 nM, 10 minute preincubation, pH 7.6, 30° C.
T1 construct: Purified elastase from human white blood cells; from tissue; host or cells: human white blood cells
T1 sequence (P08246 30-247 limits assumed): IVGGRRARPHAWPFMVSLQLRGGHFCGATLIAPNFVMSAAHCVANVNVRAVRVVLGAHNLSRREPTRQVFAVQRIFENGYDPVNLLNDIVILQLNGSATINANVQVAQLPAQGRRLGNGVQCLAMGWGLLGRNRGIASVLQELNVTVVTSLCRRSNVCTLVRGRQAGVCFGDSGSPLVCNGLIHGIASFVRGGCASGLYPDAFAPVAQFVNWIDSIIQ
Method: Enzyme Assay for Inhibition of HLE
Enzyme: Purified elastase from human white blood cells.
MeO-succinyl-L-alanyl-L-alanyl-L-propyl-L-valine-p-nitroanilide (NA)
10 mM phosphate buffer (pH 7.6)
10% dimethylsulfoxide (DMSO)
The enzyme activity was determined by monitoring the increase in absorbance at […] caused by the hydrolysis of chromogenic substrates. Inhibition of enzyme by the compounds described were determined after a 10 minute preincubation with the enzyme in reaction mixture minus substrate. Reaction was initiated by the addition of substrate. The concentration of human leukocyte elastase used for assay was at 10 nM.
HLE, CTG, PPE, and CTD were tested at 30° C. and the others were […]

[2] = target: T2, cathepsin G (Homo sapiens, UniProt P08311); assay: Selectivity against various proteases: cathepsin G (CTG); assay type: biochemical; conditions: cathepsin G 50 nM, human white blood cells, pH 7.5, 30° C., 10 minute preincubation
T2 construct: Purified Cathepsin G from human white blood cells; from tissue; host or cells: human white blood cells
T2 sequence (P08311 21-244 limits assumed): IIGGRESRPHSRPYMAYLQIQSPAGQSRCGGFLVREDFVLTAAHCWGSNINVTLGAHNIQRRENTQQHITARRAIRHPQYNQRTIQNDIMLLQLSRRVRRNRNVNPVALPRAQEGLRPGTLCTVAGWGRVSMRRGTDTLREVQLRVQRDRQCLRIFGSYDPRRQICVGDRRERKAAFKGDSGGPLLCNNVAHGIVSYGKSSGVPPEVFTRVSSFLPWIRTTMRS
Method: Reaction mixture: […] 500 mM NaCl […] 2.0 mM Substrate Except for Cathepsin D, the enzyme activities were determined by monitoring the increase in absorbance at 410 nm caused by the hydrolysis of chromogenic substrates. The activity of Cathepsin D was determined by monitoring the absorbance of 5% trichloroacetic acid-soluble material at 280 nm. Inhibition of enzymes by the compounds described were determined after a 10 minute preincubation with enzymes in reaction mixtures minus substrate. Reactions were initiated by the addition of substrates. The concentration used for assays were porcine pancreatic elastase at 240 nM and human Cathepsin G at 50 nM. Cathepsin D was used at the concentration that produced approximately 0.15 O.D. increase per 20 min at 280 nm under the standard conditions. All other proteases were assayed at the concentrations that produced approximately 0.1 O.D. change per minute at 410 nm under the standard conditions.

CC1=C(C(=O)OC(c2ccccc2)c2ccccc2)N2C(=O)[C@H](Br)[C@H]2S(=O)(=O)C12CC2(c1ccccc1)c1ccccc1 (single isomer, unassigned) [Example 2, benzhydryl 7α-bromo-2-spiro(2', 2'-diphenyl) cyclopropyl-3-methyl-3-cephem-4-carboxylate-1,1-dioxide]
IC50 [1]: 0.00336 µM | IC50 [2]: 16.2 µM
